Read-outs that look alike come from different tables or passages of the source.
How the values were obtained:
[1] = Plasma PK of major maoto compounds by LC-MS/MS after oral administration of maoto; type: in vivo, rat
Method: 1 (7:00-19:00). Rats were maintained and used for the experiments in accordance
2 with the Guidelines for the Care and Use of Laboratory Animals of Tsumura &
3 CO. All experimental procedures were carried out upon approval from the
4 Laboratory Animal Committee of Tsumura & CO.
8 administered to 16-h fasted rats (n=3). […]
14 and 4 g/10mL/kg) were determined by LC-MS/MS. Based on a literature search,
16 amygdalin, prunasin, scopoletin, l-ephedrine, d-pseudoephedrine,
1 Plasma PK data were analyzed by noncompartmental modeling using
2 Phoenix WinNonlin (version 6.3, Certara L.P., St. Louis, MO, USA) to determine
3 various PK constants including Cmax, tmax, t1/2, and AUC0–last. The t1/2 was divided
4 by loge2/ke, where ke is the rate constant of terminal elimination (at least three
5 data points on the descending linear limb). […]

[2] = type: in vivo, rat
Method: Distilled water and saline were administered as vehicle to rats in each control group. […] Plasma cytokine levels were measured by ELISA or multiplex immunoassay; common metabolites and lipid mediators were analyzed by GC-MS/MS and LC-MS/MS, respectively.
Pathway maps of lipid mediators were created by using CellDesigner 4.4 software (http://www.celldesigner.org). We evaluated the effects of the treatments on specific lipid mediators and categorized them according to COX, CYP and LOX pathways by Fisher’s exact test. The proinflammatory and anti-inflammatory indices were analyzed as described by Tam et al. with modification.[22]

[3] = Sprague-Dawley, rat, plasma, po, 1 g/kg
[4] = Sprague-Dawley, rat, plasma, po, 1 g/kg, read-out: Cmax
[5] = Sprague-Dawley, rat, plasma, po, 1 g/kg, read-out: Tmax
[6] = Sprague-Dawley, rat, plasma, po, 2 g/kg
[7] = Sprague-Dawley, rat, plasma, po, 2 g/kg, read-out: Cmax
[8] = Sprague-Dawley, rat, plasma, po, 2 g/kg, read-out: Tmax
[9] = Sprague-Dawley, rat, plasma, po, 4 g/kg
[10] = Sprague-Dawley, rat, plasma, po, 4 g/kg, read-out: Cmax
[11] = Sprague-Dawley, rat, plasma, po, 4 g/kg, read-out: Tmax
[12] = PM/P (polyI:C+maoto vs polyI:C), 2h
[13] = PM/P (polyI:C+maoto vs polyI:C), 4h

Structure (SMILES) | AUC(0-t) [1, 6] [ng·h/mL] | Cmax [1, 7] [ng/mL] | AUC(0-t) [1, 9] [ng·h/mL] | Cmax [1, 10] [ng/mL] | Tmax [1, 11] [min] | log2FC of plasma level ([2]; M/C (maoto vs control), 2h) | log2FC of plasma level ([2]; M/C (maoto vs control), 4h) | log2FC of plasma level ([2]; P/C (polyI:C vs control), 2h) | log2FC of plasma level ([2]; P/C (polyI:C vs control), 4h) | log2FC of plasma level [2, 12] | log2FC of plasma level [2, 13] | other results
CN[C@@H](C)[C@@H](O)c1ccccc1 [d-Pseudoephedrine, d-pseudoephedrine] | 559 | 163 | 1180 | 253 | 15 | – | – | – | – | – | – | AUC(0-t) [1, 3]: 183 ng·h/mL; half-life [1, 3]: 349 min; Cmax [1, 4]: 136 ng/mL; Tmax [1, 5]: 15 min; half-life [1, 6]: 395 min; Tmax [1, 8]: 15 min; half-life [1, 9]: 232 min
Oc1cc(O)c2c(c1)O[C@H](c1cc(O)c(O)c(O)c1)[C@H](O)C2 [Epigallocatechin] | 0.26 | 0.103 | 0.286 | 0.456 | 15 | – | – | – | – | – | – | AUC(0-t) [1, 3]: 0.457 ng·h/mL; half-life [1, 3]: 314 min; Cmax [1, 4]: 0.197 ng/mL; Tmax [1, 5]: 30 min; half-life [1, 6]: 190 min; Tmax [1, 8]: 30 min; half-life [1, 9]: 50 min
O=C1C[C@@H](c2ccc(O)cc2)Oc2cc(O)ccc21 [Liquiritigenin] | – | – | – | – | – | – | – | – | – | – | – | AUClast ([1]; rat plasma, oral maoto 1 g/kg): 17.4 ng·h/mL; Cmax ([1]; rat plasma, oral maoto 1 g/kg): 18.0 ng/mL; Tmax ([1]; rat plasma, oral maoto 1 g/kg): 15 min; AUClast ([1]; rat plasma, oral maoto 2 g/kg): 35.0 ng·h/mL; Cmax ([1]; rat plasma, oral maoto 2 g/kg): 15.1 ng/mL; Tmax ([1]; rat plasma, oral maoto 2 g/kg): 60 min; AUClast ([1]; rat plasma, oral maoto 4 g/kg): 84.4 ng·h/mL; Cmax ([1]; rat plasma, oral maoto 4 g/kg): 16.1 ng/mL; Tmax ([1]; rat plasma, oral maoto 4 g/kg): 15 min
N#C[C@H](O[C@@H]1O[C@H](CO)[C@@H](O)[C@H](O)[C@H]1O)c1ccccc1 [Prunasin] | 11900 | 2240 | 32000 | 3250 | 120 | – | – | – | – | – | – | AUC(0-t) [1, 3]: 5520 ng·h/mL; half-life [1, 3]: 53.5 min; Cmax [1, 4]: 2020 ng/mL; Tmax [1, 5]: 30 min; half-life [1, 6]: 147 min; Tmax [1, 8]: 30 min; half-life [1, 9]: 193 min
O=c1ccc2ccc(O)cc2o1 [7-hydroxycoumarin] | – | – | – | – | – | – | – | – | – | – | – | detection in rat plasma by targeted LC-MS/MS ([1]; oral maoto 2 g/kg): not detected; AUClast ([1]; rat plasma, oral maoto 1 g/kg): BQL; Cmax ([1]; rat plasma, oral maoto 1 g/kg): BQL; AUClast ([1]; rat plasma, oral maoto 2 g/kg): BQL; Cmax ([1]; rat plasma, oral maoto 2 g/kg): BQL; AUClast ([1]; rat plasma, oral maoto 4 g/kg): BQL; Cmax ([1]; rat plasma, oral maoto 4 g/kg): BQL
Oc1cc(O)c2c(c1)O[C@H](c1ccc(O)c(O)c1)[C@H](O)[C@H]2c1c(O)cc(O)c2c1O[C@H](c1ccc(O)c(O)c1)[C@H](O)C2 [Procyanidin B2] | 0.172 | 0.687 | 2.06 | 4.64 | 15 | – | – | – | – | – | – | Tmax [1, 8]: 60 min; AUClast ([1]; rat plasma, oral maoto 1 g/kg): BQL; Cmax ([1]; rat plasma, oral maoto 1 g/kg): BQL
CC1(C)[C@@H](O)CC[C@]2(C)[C@H]3C(=O)C=C4[C@@H]5C[C@@](C)(C(=O)O)CC[C@]5(C)CC[C@@]4(C)[C@]3(C)CC[C@@H]12 [Glycyrrhetinic acid] | 4510 | 373 | 3950 | 301 | 480 | – | – | – | – | – | – | AUC(0-t) [1, 3]: 2240 ng·h/mL; Cmax [1, 4]: 234 ng/mL; Tmax [1, 5]: 480 min; Tmax ([1]; rat plasma, oral maoto 2 g/kg): 600 min
O=C(/C=C/c1ccc(O[C@@H]2O[C@H](CO)[C@@H](O)[C@H](O)[C@H]2O)cc1)c1ccc(O)cc1O [Isoliquiritin] | 6.03 | 3.6 | 12.6 | 8.71 | 15 | – | – | – | – | – | – | AUC(0-t) [1, 3]: 2.09 ng·h/mL; half-life [1, 3]: 138 min; Cmax [1, 4]: 1.6 ng/mL; Tmax [1, 5]: 15 min; Tmax [1, 8]: 60 min; half-life [1, 9]: 188 min
Oc1cc(O)c2c(c1)O[C@H](c1ccc(O)c(O)c1)[C@@H](O)C2 [(+)-Catechin] | – | – | – | – | – | – | – | – | – | – | – | AUClast ([1]; rat plasma, oral maoto 1 g/kg): BQL; Cmax ([1]; rat plasma, oral maoto 1 g/kg): BQL; AUClast ([1]; rat plasma, oral maoto 2 g/kg): 0.111 ng·h/mL; Cmax ([1]; rat plasma, oral maoto 2 g/kg): 0.443 ng/mL; Tmax ([1]; rat plasma, oral maoto 2 g/kg): 60 min; AUClast ([1]; rat plasma, oral maoto 4 g/kg): 1.71 ng·h/mL; Cmax ([1]; rat plasma, oral maoto 4 g/kg): 3.75 ng/mL; Tmax ([1]; rat plasma, oral maoto 4 g/kg): 15 min
O=C(/C=C/c1ccc(O)cc1)c1ccc(O)cc1O [Isoliquiritigenin] | 31 | 10.1 | 58.9 | 7.59 | 15 | – | – | – | – | – | – | AUC(0-t) [1, 3]: 19.8 ng·h/mL; Cmax [1, 4]: 10.4 ng/mL; Tmax [1, 5]: 15 min; half-life [1, 6]: 666 min; Tmax [1, 8]: 15 min; half-life [1, 9]: 217 min; t1/2 ([1]; rat plasma, oral maoto 1 g/kg): 3.42 h
CCCCC[C@@H](/C=C/C=C\CCCCCCCC(=O)O)OO [13-HpODE] | – | – | – | – | – | 2.37 | -2.47 | 0.75 | 0.25 | -0.76 | -1.63 | –
CCCCC/C=C\C[C@H]1O[C@H]1C/C=C\C/C=C\CCCC(=O)O [11,12-EET] | – | – | – | – | – | -0.50 | -0.33 | -0.22 | 0.37 | -0.13 | -0.59 | –
CC/C=C\CC(O)C(O)C/C=C\C/C=C\C/C=C\CCCC(=O)O (stereo not drawn) [14,15-DiHETE] | – | – | – | – | – | 0.41 | -0.20 | 0.14 | 0.00 | -0.13 | -0.17 | –
CC/C=C\C/C=C\C/C=C\C/C=C\CC(O)/C=C/C=C\CCC(=O)O (stereo not drawn) [8-HDoHE] | – | – | – | – | – | 0.09 | -0.20 | -0.07 | 0.23 | -0.15 | -0.44 | –
CC/C=C\CC(O)/C=C/C=C\C/C=C\C/C=C\CCCC(=O)O (stereo not drawn) [15-HEPE] | – | – | – | – | – | 0.47 | -0.29 | 0.28 | 0.06 | -0.02 | -0.55 | –
O=C(O)CCC/C=C\C/C=C\C/C=C\C/C=C\CCCCC(=O)O [20-carboxy-AA] | – | – | – | – | – | 0.40 | 0.17 | 0.03 | 0.32 | 0.28 | 0.00 | –
CCCCC[C@H](O)/C=C/[C@@H]1[C@@H](C/C=C\CCCC(=O)O)[C@@H](O)C[C@H]1O [PGF2α] | – | – | – | – | – | 0.30 | -0.20 | 0.24 | -0.04 | 0.14 | -0.13 | –
CCCCC[C@H](O)/C=C/[C@H]1[C@H](O)CC(=O)[C@@H]1C/C=C\CCCC(=O)O [PGE2] | – | – | – | – | – | -0.31 | 0.22 | 0.59 | 0.59 | -0.15 | 0.22 | –
CCCCC/C=C\CC(=O)/C=C/C=C\C/C=C\CCCC(=O)O [12-KETE] | – | – | – | – | – | 0.74 | -1.34 | -0.45 | 0.53 | 0.54 | -1.45 | –
CCCCCC(=O)CCC1C(=O)CC(O)C1C/C=C\CCCC(=O)O (stereo not drawn) [13,14-dihydro-15-keto-PGD2] | – | – | – | – | – | – | – | – | – | – | – | log2FC of plasma level [2]: -0.34; log2FC of plasma level ([2]; first value of an incomplete line, time (2h or 4h) not assignable): 0.70
CC/C=C\C/C=C\C=C\C(O)CCCCCCCC(=O)O (stereo not drawn) [9-HOTrE] | – | – | – | – | – | 0.03 | -0.77 | 0.04 | 0.61 | -0.05 | -1.19 | –
CC/C=C\C/C=C\C/C=C\C/C=C\C/C=C\C=C\C(O)CCC(=O)O (stereo not drawn) [4-HDoHE] | – | – | – | – | – | 0.12 | -0.59 | -0.04 | 0.33 | 0.03 | -0.79 | –

— article PMC5654968 (NPJ Systems Biology and Applications, 2017)
